From patent US9902701B2, “Pyridazones and triazinones for treatment and prophylaxis of hepatitis B virus infection” (priority 2014, dated 2018)

tested on: HBsAg; assay: HBsAg assay: chemiluminescence immunoassay (CLIA) of secreted HBsAg in supernatant of HepG2.2.15 cells; assay type: cell-based, HBV; details: Hepatitis B virus
Method: HepG2.2.15 cells (Acs et al. Proc Natl Acad Sci USA, 84, (1987), 4641-4), a constitutively HBV-expressing cell line were cultured in DMEM+Glutamax-I medium (Invitrogen, Carlsbad, Calif., USA), supplemented with 10% fetal bovine serum (Invitrogen) and G418 (Invitrogen) at a final concentration of 200 mg/L and maintained in 5% CO2 at 37° C.
HepG2.2.15 cells were seeded in duplicate into white, 96-well plates at 1.5×10^4 cells/well. The cells were treated with a three-fold serial dilution series of the compounds in DMSO. The final DMSO concentration in all wells was 1% and DMSO was used as no drug control.
The HBsAg chemiluminescence immunoassay (CLIA) kit (Autobio Diagnostics Co., Zhengzhou, China, Catalog number: CL0310-2) was used to measure the levels of secreted HBV antigens semi-quantitatively. For the detection 50 μL/well culture supernatant was used and HBsAg was quantified using HBsAg chemiluminescence immunoassay (CLIA) kit (Autobio Diagnostics Co., Zhengzhou, China, Catalog number: CL0310-2), 50 μL of the supernatant was transferred to the CLIA assay plate and 50 μL of enzyme conjugate reagent was added into each well. The plates were sealed and gently agitated for 1 hour at room temperature. The supernatant-enzyme-mixture was discarded and wells were washed 6 times with 300 μL of PBS. The residual liquid was removed by plating the CLIA plate […] on absorbent tissue paper. 25 μL of substrates A and B were added to each well. Luminance was measured using a luminometer (Mithras LB 940 Multimode Microplate Reader) after 10 minutes incubation. Dose-response curves were generated and the IC50 value was extrapolated by using the E-WorkBook Suite (ID Business Solutions Ltd., Guildford, UK). The IC50 was defined as the compound concentration (or conditioned media log dilution) at which HBsAg secretion was reduced by 50% compared to the no drug control.

Row | SMILES | IC50
1 | CC(C)N(C(=O)c1ccc(N(C)C(=O)CN2N=C(c3ccc(Cl)cc3)CCC2=O)cc1)C(C)C [Example 1-12, 4-[[2-[3-(4-Chlorophenyl)-6-oxo-4,5-dihydropyridazin-1-yl]acetyl]-methyl-amino]-N,N-diisopropyl-benzamide] | 885 nM
2 | CN(C(=O)CN1N=C(c2ccc(Cl)cc2)CCC1=O)c1ccc(Cl)cc1 [Example 1-1, N-(4-Chlorophenyl)-2-[3-(4-chlorophenyl)-6-oxo-4,5-dihydropyridazin-1-yl]-N-methyl-acetamide] | 1580 nM
3 | CN(C(=O)CN1N=C(c2ccc(C(F)(F)F)cc2)CCC1=O)c1cccc(F)c1 [Example 1-42, N-(3-Fluorophenyl)-N-methyl-2-[6-oxo-3-[4-(trifluoromethyl)phenyl]-4,5-dihydropyridazin-1-yl]acetamide] | 520 nM
4 | CN(C(=O)CN1N=C(c2ccc(Cl)c(F)c2)CCC1=O)c1cccc(F)c1 [Example 1-23, 2-[3-(4-Chloro-3-fluoro-phenyl)-6-oxo-4,5-dihydropyridazin-1-yl]-N-(3-fluorophenyl)-N-methyl-acetamide] | 460 nM
5 | CN(C(=O)CN1N=C(c2ccc(F)cc2)CCC1=O)c1ccccc1 [Example 1-47, 2-[3-(4-Fluorophenyl)-6-oxo-4,5-dihydropyridazin-1-yl]-N-methyl-N-phenyl-acetamide] | 8930 nM
6 | CN(C(=O)Cn1nc(-c2ccc(Cl)c(F)c2)ccc1=O)c1ccc(C(F)(F)F)cc1 [Example 2-2, 2-[3-(4-Chloro-3-fluorophenyl)-6-oxo-pyridazin-1-yl]-N-methyl-N-[4-(trifluoromethyl)phenyl]acetamide] | 520 nM
7 | CN(C(=O)CN1N=C(c2ccc(F)cc2F)CCC1=O)c1cccc(F)c1 [Example 1-34, 2-[3-(2,4-Difluorophenyl)-6-oxo-4,5-dihydropyridazin-1-yl]-N-(3-fluorophenyl)-N-methyl-acetamide] | 1250 nM
8 | Cc1cc(Cl)ccc1C1=NN(CC(=O)N(C)c2ccc(Cl)cc2)C(=O)CC1 [Example 1-26, 2-[3-(4-Chloro-2-methylphenyl)-6-oxo-4,5-dihydropyridazin-1-yl]-N-(4-chlorophenyl)-N-methyl-acetamide] | 1880 nM
9 | CN(C(=O)Cn1nc(-c2ccc(Cl)cc2)ccc1=O)c1ccc(Cl)cc1 [Example 2-5, N-(4-Chlorophenyl)-2-[3-(4-chlorophenyl)-6-oxo-pyridazin-1-yl]-N-methyl-acetamide] | 1770 nM
10 | COc1cccc(N(C)C(=O)CN2N=C(c3ccc(Cl)cc3)CCC2=O)c1 [Example 1-5, 2-[3-(4-Chlorophenyl)-6-oxo-4,5-dihydropyridazin-1-yl]-N-(3-methoxyphenyl)-N-methyl-acetamide] | 9630 nM
11 | CN(C(=O)CN1N=C(c2ccc(F)cc2)CCC1=O)c1ccc(Cl)cc1 [Example 1-48, N-(4-Chlorophenyl)-2-[3-(4-fluorophenyl)-6-oxo-4,5-dihydropyridazin-1-yl]-N-methyl-acetamide] | 1880 nM
12 | CN(C(=O)Cn1nc(-c2ccc(Cl)cc2)ccc1=O)c1ccc(C(F)(F)F)cc1 [Example 2-1, 2-[3-(4-Chlorophenyl)-6-oxo-pyridazin-1-yl]-N-methyl-N-[4-(trifluoromethyl)phenyl]acetamide] | 900 nM
13 | CN(C(=O)CN1N=C(c2ccc(Cl)cc2)CCC1=O)c1cccc(C(F)(F)F)c1 [Example 1-19, 2-[3-(4-Chlorophenyl)-6-oxo-4,5-dihydropyridazin-1-yl]-N-methyl-N-[3-(trifluoromethyl)phenyl]acetamide] | 1000 nM
14 | CN(C(=O)Cn1nc(-c2c(F)cccc2Cl)ccc1=O)c1ccc(C(F)(F)F)cc1 [Example 2-4, 2-[3-(2-Chloro-6-fluoro-phenyl)-6-oxo-pyridazin-1-yl]-N-methyl-N-[4-(trifluoromethyl)phenyl]acetamide] | 4760 nM
15 | CN(C(=O)CN1N=C(c2ccc(Cl)cc2Cl)CCC1=O)c1ccc(Cl)cc1 [Example 1-54, N-(4-Chlorophenyl)-2-[3-(2,4-dichlorophenyl)-6-oxo-4,5-dihydropyridazin-1-yl]-N-methyl-acetamide] | 1930 nM
16 | CN(C(=O)CN1N=C(c2ccc(Br)cc2)CCC1=O)c1ccc(C(F)(F)F)cc1 [Example 1-51, 2-[3-(4-Bromophenyl)-6-oxo-4,5-dihydropyridazin-1-yl]-N-methyl-N-[4-(trifluoromethyl)phenyl]acetamide] | 1160 nM

Row | SMILES | IC50
17 | CN(C(=O)CN1N=C(c2ccc(Cl)cc2)CNC1=O)c1ccc(C(F)(F)F)cc1 [Example 3-1, 2-[6-(4-Chlorophenyl)-3-oxo-4,5-dihydro-1,2,4-triazin-2-yl]-N-methyl-N-[4-(trifluoromethyl)phenyl]acetamide] | 10300 nM
18 | Cc1cc(Cl)ccc1C1=NN(CC(=O)N(C)c2cccc(F)c2)C(=O)CC1 [Example 1-28, 2-[3-(4-Chloro-2-methyl-phenyl)-6-oxo-4,5-dihydropyridazin-1-yl]-N-(3-fluorophenyl)-N-methyl-acetamide] | 4590 nM
19 | CN(C(=O)CN1N=C(c2ccc(C(F)(F)F)cc2)CCC1=O)c1ccc(Cl)cc1 [Example 1-44, N-(4-Chlorophenyl)-N-methyl-2-[6-oxo-3-[4-(trifluoromethyl)phenyl]-4,5-dihydropyridazin-1-yl]acetamide] | 960 nM
20 | CN(C(=O)CN1N=C(c2ccc(C(F)(F)F)cc2)CCC1=O)c1cccc(C(F)(F)F)c1 [Example 1-41, N-Methyl-2-[6-oxo-3-[4-(trifluoromethyl)phenyl]-4,5-dihydropyridazin-1-yl]-N-[3-(trifluoromethyl)phenyl]acetamide] | 250 nM
21 | CN(C(=O)CN1N=C(c2ccc(Cl)c(F)c2)CCC1=O)c1cccc(Cl)c1 [Example 1-24, 2-[3-(4-Chloro-3-fluoro-phenyl)-6-oxo-4,5-dihydropyridazin-1-yl]-N-(3-chlorophenyl)-N-methyl-acetamide] | 168 nM
22 | CN(C(=O)CN1N=C(c2ccc(Cl)c(Cl)c2)CCC1=O)c1ccc(C(F)(F)F)cc1 [Example 1-45, 2-[3-(3,4-Dichlorophenyl)-6-oxo-4,5-dihydropyridazin-1-yl]-N-methyl-N-[4-(trifluoromethyl)phenyl]acetamide] | 230 nM
23 | CN(C(=O)CN1N=C(c2ccc(Cl)cc2)CCC1=O)c1ccc(F)cc1F [Example 1-13, 2-[3-(4-Chlorophenyl)-6-oxo-4,5-dihydropyridazin-1-yl]-N-(2,4-difluorophenyl)-N-methyl-acetamide] | 6610 nM
24 | CN(C(=O)CN1N=C(c2ccc(Cl)cc2)CCC1=O)c1ccc(C(F)(F)F)c(F)c1 [Example 1-3, 2-[3-(4-Chlorophenyl)-6-oxo-4,5-dihydropyridazin-1-yl]-N-[3-fluoro-4-(trifluoromethyl)phenyl]-N-methyl-acetamide] | 301 nM
25 | CN(C(=O)CN1N=C(c2ccc(F)c(F)c2)CCC1=O)c1cccc(C(F)(F)F)c1 [Example 1-52, 2-[3-(3,4-Difluorophenyl)-6-oxo-4,5-dihydropyridazin-1-yl]-N-methyl-N-[3-(trifluoromethyl)phenyl]acetamide] | 470 nM
26 | CN(C(=O)CN1N=C(c2ccc(Cl)cc2)CCC1=O)c1ccc(OC(F)(F)F)cc1 [Example 1-16, 2-[3-(4-Chlorophenyl)-6-oxo-4,5-dihydropyridazin-1-yl]-N-methyl-N-[4-(trifluoromethoxy)phenyl]acetamide] | 3860 nM
27 | CN(C(=O)CN1N=C(c2ccc(F)c(F)c2)CCC1=O)c1ccc(C(F)(F)F)cc1 [Example 1-53, 2-[3-(3,4-Difluorophenyl)-6-oxo-4,5-dihydropyridazin-1-yl]-N-methyl-N-[4-(trifluoromethyl)phenyl]acetamide] | 860 nM
28 | CN(C(=O)CN1N=C(c2ccc(Cl)cc2)CCC1=O)c1ccc(F)c(C(F)(F)F)c1 [Example 1-2, 2-[3-(4-Chlorophenyl)-6-oxo-4,5-dihydropyridazin-1-yl]-N-[4-fluoro-3-(trifluoromethyl)phenyl]-N-methyl-acetamide] | 740 nM
29 | CN(C(=O)CN1N=C(c2ccc(Br)cc2)CCC1=O)c1ccccc1 [Example 1-49, 2-[3-(4-Bromophenyl)-6-oxo-4,5-dihydropyridazin-1-yl]-N-methyl-N-phenyl-acetamide] | 3870 nM
30 | CN(C(=O)CN1N=C(c2cccc(Cl)c2)CCC1=O)c1ccc(Cl)cc1 [Example 1-57, N-(4-Chlorophenyl)-2-[3-(3-chlorophenyl)-6-oxo-4,5-dihydropyridazin-1-yl]-N-methyl-acetamide] | 3020 nM
31 | CN(C(=O)CN1N=C(c2ccc(Cl)cc2)CCC1=O)c1ccc(F)cc1 [Example 1-6, 2-[3-(4-Chlorophenyl)-6-oxo-4,5-dihydropyridazin-1-yl]-N-(4-fluorophenyl)-N-methyl-acetamide] | 3630 nM
32 | Cc1cc(C2=NN(CC(=O)N(C)c3ccc(C(F)(F)F)c(F)c3)C(=O)CC2)ccc1F [Example 1-38, 2-[3-(4-Fluoro-3-methyl-phenyl)-6-oxo-4,5-dihydropyridazin-1-yl]-N-[3-fluoro-4-(trifluoromethyl)phenyl]-N-methyl-acetamide] | 2350 nM
